Assay results: PubChem BioAssay (NCI)
Several values for one entry are separate records, joined by “and”; a condition that tells them apart may be missing. Identical values can stand only once.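 Cultured in 96-well plates, cells were exposed to test compound for 48 hours across five concentrations. GI50 = concentration required for 50% inhibition of growth. Definition used: TGI = concentration required for complete inhibition of growth.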

Key:
Test in all cases: growth of human tumour cells (NCI), 48 h
[1] = tested on: 786-0 renal
[2] = tested on: A498 renal
[3] = tested on: A549 NSCLC
[4] = tested on: ACHN renal
[5] = tested on: BT-549 breast
[6] = tested on: CAKI-1 renal
[7] = tested on: COLO 205 colon
[8] = tested on: DU-145 prostate
[9] = tested on: EKVX NSCLC
[10] = tested on: HCC-2998 colon
[11] = tested on: HCT-116 colon
[12] = tested on: HCT-15 colon
[13] = tested on: HL-60(TB) leukemia
[14] = tested on: HOP-62 NSCLC
[15] = tested on: HOP-92 NSCLC
[16] = tested on: HS 578T breast
[17] = tested on: HT29 colon
[18] = tested on: IGROV1 ovarian
[19] = tested on: KM12 colon
[20] = tested on: LOX IMVI melanoma
[21] = tested on: M14 melanoma
[22] = tested on: MALME-3M melanoma
[23] = tested on: MCF7 breast
[24] = tested on: MDA-MB-435
[25] = tested on: NCI-H226 lung
[26] = tested on: NCI-H23 lung
[27] = tested on: NCI-H460 lung
[28] = tested on: NCI-H522 lung
[29] = tested on: NCI/ADR-RES ovarian
[30] = tested on: OVCAR-3 ovarian
[31] = tested on: OVCAR-4 ovarian
[32] = tested on: OVCAR-5 ovarian
[33] = tested on: OVCAR-8 ovarian
[34] = tested on: PC-3 prostate
[35] = tested on: RXF 393 renal
[36] = tested on: SF-268 CNS
[37] = tested on: SF-295 CNS
[38] = tested on: SF-539 CNS
[39] = tested on: SK-MEL-2 melanoma
[40] = tested on: SK-MEL-28 melanoma
[41] = tested on: SK-OV-3 ovarian
[42] = tested on: SN12C renal
[43] = tested on: SNB-19 CNS
[44] = tested on: SNB-75 CNS
[45] = tested on: SR leukemia
[46] = tested on: SW-620 colon
[47] = tested on: T-47D breast
[48] = tested on: TK-10 renal
[49] = tested on: U251 CNS
[50] = tested on: UACC-257 melanoma
[51] = tested on: UACC-62 melanoma
[52] = tested on: UO-31 renal
[53] = tested on: CCRF-CEM leukemia
[54] = tested on: K-562 leukemia
[55] = tested on: MDA-MB-231 breast
[56] = tested on: MOLT-4 leukemia
[57] = tested on: RPMI-8226 leukemia
[58] = tested on: SK-MEL-5 melanoma

COc1ccc(S(=O)(=O)NCCNc2nccc(-c3c(-c4ccccc4)nc4sccn34)n2)cc1 gave a GI50 [1] of 3420 nM, a TGI [1] greater than 100000 nM and a GI50 [2] of 1160 nM. It also gave a TGI [2] of 8900 nM, a GI50 [3] of 1610 nM and a TGI [3] greater than 100000 nM. For the same compound, the GI50 [4] was 2020 nM, the TGI [4] was greater than 100000 nM and the GI50 [5] was 3560 nM. The TGI [5] was greater than 100000 nM, the GI50 [6] was 1290 nM and the TGI [6] was greater than 100000 nM. For the same compound, the GI50 [7] was 2660 nM, the TGI [7] was greater than 100000 nM and the GI50 [8] was 3370 nM. It also gave a TGI [8] greater than 100000 nM, a GI50 [9] of 7110 nM and a TGI [9] greater than 100000 nM. It also gave a GI50 [10] of 16100 nM, a TGI [10] greater than 100000 nM and a GI50 [11] of 1580 nM. The TGI [11] was greater than 100000 nM, the GI50 [12] was 2420 nM and the TGI [12] was greater than 100000 nM. It also gave a GI50 [13] of 2870 nM, a TGI [13] greater than 100000 nM and a GI50 [14] of 15300 nM. It also gave a TGI [14] greater than 100000 nM, a GI50 [15] of 3730 nM and a TGI [15] of 65700 nM. For the same compound, the GI50 [16] was 2180 nM, the TGI [16] was 47400 nM and the GI50 [17] was 1720 nM. It also gave a TGI [17] greater than 100000 nM, a GI50 [18] of 2130 nM and a TGI [18] greater than 100000 nM. For the same compound, the GI50 [19] was 513 nM, the TGI [19] was greater than 100000 nM and the GI50 [20] was 3940 nM. The TGI [20] was greater than 100000 nM, the GI50 [21] was 2770 nM and the TGI [21] was greater than 100000 nM. For the same compound, the GI50 [22] was 8770 nM, the TGI [22] was greater than 100000 nM and the GI50 [23] was 873 nM. For the same compound, the TGI [23] was greater than 100000 nM, the GI50 [24] was 1220 nM and the TGI [24] was greater than 100000 nM. The GI50 [25] was 4660 nM, the TGI [25] was greater than 100000 nM and the GI50 [26] was 7350 nM. It also gave a TGI [26] greater than 100000 nM, a GI50 [27] of 1240 nM and a TGI [27] greater than 100000 nM. It also gave a GI50 [28] of 4640 nM, a TGI [28] greater than 100000 nM and a GI50 [29] of 5180 nM. For the same compound, the TGI [29] was greater than 100000 nM, the GI50 [30] was 3560 nM and the TGI [30] was greater than 100000 nM. For the same compound, the GI50 [31] was 3620 nM, the TGI [31] was greater than 100000 nM and the GI50 [32] was greater than 100000 nM. For the same compound, the TGI [32] was greater than 100000 nM, the GI50 [33] was 3080 nM and the TGI [33] was greater than 100000 nM. The GI50 [34] was 1640 nM, the TGI [34] was greater than 100000 nM and the GI50 [35] was 5710 nM. It also gave a TGI [35] of 91000 nM, a GI50 [36] of 3740 nM and a TGI [36] greater than 100000 nM. The GI50 [37] was 6520 nM, the TGI [37] was greater than 100000 nM and the GI50 [38] was 13700 nM. For the same compound, the TGI [38] was greater than 100000 nM, the GI50 [39] was 4980 nM and the TGI [39] was greater than 100000 nM. The GI50 [40] was 5790 nM, the TGI [40] was greater than 100000 nM and the GI50 [41] was 4180 nM. The TGI [41] was greater than 100000 nM, the GI50 [42] was 1930 nM and the TGI [42] was greater than 100000 nM. It also gave a GI50 [43] of 8780 nM, a TGI [43] greater than 100000 nM and a GI50 [44] of 1820 nM. The TGI [44] was 9540 nM, the GI50 [45] was 784 nM and the TGI [45] was greater than 100000 nM. For the same compound, the GI50 [46] was 5030 nM, the TGI [46] was greater than 100000 nM and the GI50 [47] was 3170 nM. The TGI [47] was greater than 100000 nM, the GI50 [48] was 5070 nM and the TGI [48] was greater than 100000 nM. For the same compound, the GI50 [49] was 5170 nM, the TGI [49] was greater than 100000 nM and the GI50 [50] was 6470 nM. It also gave a TGI [50] greater than 100000 nM, a GI50 [51] of 1170 nM and a TGI [51] greater than 100000 nM. The GI50 [52] was 706 nM and the TGI [52] was greater than 100000 nM.

With COc1cc(OC)c(/C=C/S(=O)(=O)Cc2ccc(OC)c(NCC(=O)O)c2)c(OC)c1 the GI50 [1] was 177 nM and 144 nM, the TGI [1] was greater than 100000 nM and the GI50 [2] was 66.8 nM and 44.8 nM. For the same compound, the GI50 [3] was 229 nM and 75.5 nM, the TGI [3] was greater than 100000 nM and the GI50 [4] was 178 nM and 452 nM. The TGI [4] was greater than 100000 nM, the GI50 [5] was 193 nM and 400 nM and the TGI [5] was greater than 24500 nM. For the same compound, the TGI [6] was greater than 100000 nM, the GI50 [53] was 159 nM and 291 nM and the TGI [53] was greater than 100000 nM. The GI50 [7] was 238 nM and 274 nM, the TGI [7] was 714 nM and 738 nM and the GI50 [8] was 290 nM and 176 nM. The GI50 [9] was 127 nM and 83.4 nM, the TGI [9] was greater than 100000 nM and the GI50 [10] was 247 nM and 237 nM. For the same compound, the TGI [10] was greater than 100000 nM, the GI50 [11] was 119 nM and 93.4 nM and the TGI [11] was greater than 10000 nM. The GI50 [12] was 127 nM and 241 nM, the TGI [12] was greater than 100000 nM and the GI50 [13] was 156 nM and 355 nM. For the same compound, the GI50 [14] was 291 nM and 87.4 nM, the TGI [14] was greater than 100000 nM and the GI50 [16] was 103 nM and 60.5 nM. For the same compound, the TGI [16] was greater than 100000 nM, the GI50 [17] was 334 nM and 328 nM and the TGI [17] was > 8570 nM and 1400 nM. The GI50 [18] was 152 nM and 244 nM, the TGI [18] was greater than 100000 nM and the GI50 [54] was 76.7 nM and 49 nM. The TGI [54] was greater than 100000 nM, the GI50 [19] was 103 nM and 49.9 nM and the TGI [19] was greater than 10000 nM. For the same compound, the GI50 [20] was 150 nM and 134 nM, the TGI [20] was greater than 100000 nM and the GI50 [21] was 96.5 nM and 46.7 nM. The TGI [21] was greater than 10000 nM, the TGI [22] was greater than 100000 nM and the GI50 [23] was 109 nM and 58.6 nM. For the same compound, the TGI [23] was greater than 100000 nM, the GI50 [55] was 192 nM and 196 nM and the TGI [55] was greater than 2680 nM. The GI50 [24] was 31.2 nM and 28.3 nM, the TGI [24] was 115 nM and 111 nM and the GI50 [56] was 408 nM and 466 nM. The TGI [56] was greater than 100000 nM, the GI50 [25] was > 2440 nM and 390 nM and the TGI [25] was greater than 100000 nM. The GI50 [26] was 263 nM and 136 nM, the TGI [26] was greater than 100000 nM and the GI50 [27] was 114 nM and 45.1 nM. For the same compound, the TGI [27] was greater than 100000 nM, the GI50 [28] was 37.4 nM and 20.5 nM and the TGI [28] was 213 nM and 60.8 nM. For the same compound, the GI50 [29] was 67.8 nM and 33.2 nM, the TGI [29] was greater than 3120 nM and the GI50 [30] was 93.5 nM and 70.2 nM. For the same compound, the TGI [30] was 533 nM, the GI50 [31] was > 2910 nM and 417 nM and the TGI [31] was greater than 100000 nM. For the same compound, the GI50 [32] was 347 nM and 470 nM, the TGI [32] was greater than 100000 nM and the GI50 [33] was 273 nM and 104 nM. The TGI [33] was greater than 100000 nM, the GI50 [34] was 119 nM and 48.6 nM and the TGI [34] was greater than 100000 nM. The GI50 [57] was 160 nM and 331 nM, the TGI [57] was greater than 100000 nM and the GI50 [35] was 72.6 nM and 46.7 nM. The TGI [35] was greater than 100000 nM, the GI50 [36] was 292 nM and 153 nM and the TGI [36] was greater than 100000 nM. For the same compound, the GI50 [37] was 68.7 nM and 44.6 nM, the TGI [37] was greater than 100000 nM and the GI50 [38] was 193 nM and 55.3 nM. The GI50 [39] was 396 nM and 288 nM, the TGI [39] was greater than 100000 nM and the GI50 [40] was 340 nM. The TGI [40] was greater than 10000 nM, the GI50 [58] was 113 nM and 68.4 nM and the TGI [58] was 1290 nM and 1010 nM. For the same compound, the GI50 [41] was 442 nM and 99 nM, the TGI [41] was greater than 100000 nM and the GI50 [42] was 207 nM and 251 nM. For the same compound, the TGI [42] was greater than 100000 nM, the GI50 [43] was 139 nM and 244 nM and the TGI [43] was greater than 100000 nM. For the same compound, the GI50 [44] was 68.2 nM and 49.2 nM, the TGI [44] was greater than 100000 nM and the GI50 [45] was 181 nM and 206 nM. For the same compound, the TGI [45] was greater than 100000 nM, the GI50 [46] was 130 nM and 108 nM and the TGI [46] was greater than 100000 nM. For the same compound, the GI50 [47] was greater than 100000 nM, the TGI [47] was greater than 100000 nM and the TGI [48] was greater than 100000 nM. The GI50 [49] was 193 nM and 47.7 nM, the TGI [49] was greater than 100000 nM and the TGI [50] was greater than 100000 nM. For the same compound, the TGI [51] was greater than 100000 nM and the TGI [52] was greater than 100000 nM.
